Reference: US9497970B2, “Pesticide compounds” (priority 2013, dated 2016)

Experiments:
Type in all cases: in vivo
[1] = test system: Diamond Back Moth (Plutella xylostella); assay: B.1 Diamond Back Moth (Plutella xylostella), cabbage leaf dip; conditions: foliar, 500 ppm, 3rd instar larvae on dipped cabbage leaves, 72 hours after treatment, in comparison with untreated controls, read-out: mortality
Protocol: B.1 Diamond Back Moth (Plutella xylostella)
The active compound was dissolved at the desired concentration in a mixture of 1:1 (vol:vol) distilled water:aceteone. Surfactant (Kinetic HV) was added at a rate of 0.01% (vol/vol). The test solution was prepared at the day of use.
Leaves of cabbage were dipped in test solution and air-dried. Treated leaves were placed in petri dishes lined with moist filter paper and inoculated with ten 3rd instar larvae. Mortality was recorded 72 hours after treatment. Feeding damages were also recorded using a scale of 0-100%.

[2] = test system: Boll Weevil (Anthonomus grandis); assay: B.3 Boll Weevil (Anthonomus grandis), microtiter plate insect diet; conditions: 120 h, 800 ppm, sprayed onto insect diet, 5 days, in comparison with untreated controls, read-out: mortality (egg and larval)
Protocol: B.3 Boll Weevil (Anthonomus grandis)
For evaluating control of boll weevil (Anthonomus grandis) the test unit consisted of 96-well-microtiter plates containing an insect diet and 5-10 A. grandis eggs.
(§1) The compounds were formulated using a solution containing 75% v/v water and 25% v/v DMSO. Different concentrations of formulated compounds were sprayed onto the insect diet at 5 μl, using a custom built micro atomizer, at two replications.
After application, microtiter plates were incubated at about 25±1° C. and about 75±5% relative humidity for 5 days. Egg and larval mortality was then visually assessed.

[3] = test system: Mediterranean Fruitfly (Ceratitis capitata); assay: B.6 Mediterranean Fruitfly (Ceratitis capitata), microtiter plate insect diet; conditions: 120 h, 800 ppm, sprayed onto insect diet, 5 days, in comparison with untreated controls, read-out: mortality (egg and larval)
Protocol: B.6 Mediterranean Fruitfly (Ceratitis capitata)
For evaluating control of Mediterranean fruitfly (Ceratitis capitata) the test unit consisted of microtiter plates containing an insect diet and 50-80 C. capitata eggs.
as §1
(§2) After application, microtiter plates were incubated at about 28±1° C. and about 80±5% relative humidity for 5 days. Egg and larval mortality was then visually assessed.

[4] = test system: Tobacco Budworm (Heliothis virescens); assay: B.7 Tobacco Budworm (Heliothis virescens) I, microtiter plate insect diet; conditions: 120 h, 800 ppm, sprayed onto insect diet, 5 days, in comparison with untreated controls, read-out: mortality (egg and larval)
Protocol: B.7 Tobacco Budworm (Heliothis virescens) I
For evaluating control of tobacco budworm (Heliothis virescens) the test unit consisted of 96-well-microtiter plates containing an insect diet and 15-25 H. virescens eggs. The compounds were formulated using a solution containing 75% v/v water and 25% v/v DMSO. Different concentrations of formulated compounds were sprayed onto the insect diet at 10 μl, using a custom built micro atomizer, at two replications.
as §2

[5] = test system: Yellow Fever Mosquito (Aedes aegypti); assay: whole plant or invertebrate; conditions: 48 h, freshly hatched larvae in tap water, 2 days, in comparison with untreated controls, read-out: mortality (larval)
Protocol: B.11 Yellow Fever Mosquito (Aedes aegypti)
For evaluating control of yellow fever mosquito (Aedes aegypti) the test unit consisted of 96-well-microtiter plates containing 200 μl of tap water per well and 5-15 freshly hatched A. aegypti larvae.
The active compounds were formulated using a solution containing 75% (v/v) water and 25% (v/v) DMSO. Different concentrations of formulated compounds or mixtures were sprayed onto the insect diet at 2.5 μl, using a custom built micro atomizer, at two replications.

[6] = test system: Orchid thrips (dichromothrips corbetti); assay: B.12 Orchid thrips (dichromothrips corbetti), floral-immersion technique; conditions: adult thrips on dipped orchid petals, 72 hours after treatment, in comparison with untreated controls
Protocol: B.12 Orchid thrips (dichromothrips corbetti)
Dichromothrips corbetti adults used for bioassay were obtained from a colony maintained continuously under laboratory conditions. For testing purposes, the test compound is diluted in a 1:1 mixture of acetone:water (vol:vol), plus Kinetic HV at a rate of 0.01% v/v.
Thrips potency of each compound was evaluated by using a floral-immersion technique. All petals of individual, intact orchid flowers were dipped into treatment solution and allowed to dry in Petri dishes. Treated petals were placed into individual resealable plastic along with about 20 adult thrips. All test arenas were held under continuous light and a temperature of about 28° C. for duration of the assay. After 3 days, the numbers of live thrips were counted on each petal. The percent mortality was recorded 72 hours after treatment.

FC(F)(F)Oc1ccc(-n2cnc3c4ccc(/C=N/NC(=S)Nc5c(Cl)cccc5Cl)cc4ccc32)cc1 [C-37, 1-(2,6-dichlorophenyl)-3-[(E)-[3-[4-(trifluoromethoxy)phenyl]benzo[e]benzimidazol-7-yl]methyleneamino] thiourea]
≥ 75%: mortality at 500 ppm [1] | mortality at 800 ppm [2] | mortality at 800 ppm [3] | mortality at 800 ppm [4] | mortality at 800 ppm [5] | mortality at 500 ppm [6]

Cc1ccc(C)c(NC(=S)N/N=C/c2ccc3c(ccc4c3ncn4-c3ccc(OC(F)(F)F)cc3)c2)c1 [C-41, 1-(2,5-dimethylphenyl)-3-[(E)-[3-[4-(trifluoromethoxy)phenyl]benzo[e]benzimidazol-7-yl]methyleneamino] thiourea]
≥ 75%: mortality at 500 ppm [1] | mortality at 800 ppm [2] | mortality at 800 ppm [3] | mortality at 800 ppm [4] | mortality at 800 ppm [5] | mortality at 500 ppm [6]

Cc1cccc(C)c1NC(=S)N/N=C/c1ccc2c(c1)sc1c2ncn1-c1ccc(OC(F)(F)F)cc1 [C-47, 1-(2,6-dimethylphenyl)-3-[(E)-[3-[4-(trifluoromethoxy)phenyl]benzothiopheno[2,3-d]imidazol-6-yl]methyleneamino]thiourea]
≥ 75%: mortality at 500 ppm [1] | mortality at 800 ppm [2] | mortality at 800 ppm [3] | mortality at 800 ppm [4] | mortality at 800 ppm [5]

COc1cccc(C)c1NC(=S)N/N=C/c1ccc2c(ccc3c2ncn3-c2ccc(OC(F)(F)F)cc2)c1 [C-65, 1-(2-methoxy-6-methyl-phenyl)-3-[(E)-[3-[4-(trifluoromethoxy)phenyl]benzo[e]benzimidazol-7-yl]methyleneamino] thiourea]
≥ 75%: mortality at 500 ppm [1] | mortality at 800 ppm [2] | mortality at 800 ppm [3] | mortality at 800 ppm [4] | mortality at 800 ppm [5] | mortality at 500 ppm [6]

Cc1cccc(C)c1NC(=S)N/N=C/c1ccc2c(ccc3c(-c4ccc(OC(F)(F)F)cc4)snc32)c1 [C-88, 1-(2,6-dimethylphenyl)-3-[(E)-[3-[4-(trifluoromethoxy)phenyl]benzo[g][2,1]benzothiazol-7-yl]methyleneamino] thiourea]
≥ 75%: mortality at 800 ppm [4] | mortality at 800 ppm [5]

CCc1cccc(CC)c1NC(=S)N/N=C/c1ccc2c(ccc3c(-c4ccc(OC(F)(F)F)cc4)n(C)nc32)c1 [C-93, 1-(2,6-diethylphenyl)-3-[(E)-[2-methyl-3-[4-(trifluoromethoxy)phenyl]benzo [g]indazol-7-yl]methyleneamino] thiourea]
≥ 75%: mortality at 500 ppm [1] | mortality at 800 ppm [2] | mortality at 800 ppm [4] | mortality at 800 ppm [5] | mortality at 500 ppm [6]

Cc1cccc(C)c1NC(=S)N/N=C/c1ccc2c(c1)CCC1C2=NN(C)C1c1ccc(OC(F)(F)F)cc1 (stereo not shown) [C-94, 1-(2,6-dimethylphenyl)-3-[(E)-[2-methyl-3-[4-(trifluoromethoxy)phenyl]-3,3a,4,5-tetrahydrobenzo[g]indazol-7-yl]methyleneamino]thiourea]
≥ 75%: mortality at 500 ppm [1] | mortality at 800 ppm [2] | mortality at 800 ppm [4] | mortality at 800 ppm [5] | mortality at 500 ppm [6]

Cc1cccc(C)c1NC(=S)N/N=C/c1ccc2c(ccc3c(-c4ccc(OC(F)(F)F)cc4)n(C)nc32)c1 [C-96, 1-(2,6-dimethylphenyl)-3-[(E)-[2-methyl-3-[4-(trifluoromethoxy)phenyl]benzo[g]indazol-7-yl]methyleneamino] thiourea]
≥ 75%: mortality at 500 ppm [1] | mortality at 800 ppm [2] | mortality at 800 ppm [3] | mortality at 800 ppm [4] | mortality at 800 ppm [5] | mortality at 500 ppm [6]

COc1cccc(C)c1NC(=S)N/N=C/c1ccc2c(ccc3c(-c4ccc(OC(F)(F)F)cc4)n(C)nc32)c1 [C-97, 1-(2-methoxy-6-methyl-phenyl)-3-[(E)-[2-methyl-3-[4-(trifluoromethoxy)phenyl]benzo[g]indazol-7-yl]methyleneamino]thiourea]
≥ 75%: mortality at 500 ppm [1] | mortality at 800 ppm [2] | mortality at 800 ppm [3] | mortality at 800 ppm [4] | mortality at 800 ppm [5]

Cc1cccc(C)c1NC(=S)N/N=C/c1ccc2c(ccc3c2ncn3-c2ncc(C(F)(F)F)cc2Cl)c1 [C-112, 1-[[3-[3-chloro-5-(trifluoromethyl)-2-pyridyl]-3aH-benzo[e]benzimidazol-7-ylidene]methylimino]-3-(2,6-dimethylphenyl)thiourea]
≥ 75%: mortality at 800 ppm [2] | mortality at 800 ppm [3] | mortality at 800 ppm [4] | mortality at 800 ppm [5]

CC(C)c1ccccc1N1C(=O)CS/C1=N\C(=O)Nc1ccc2c(ccc3c2ncn3-c2ccc(OC(F)(F)F)cc2)c1 [C-115, (1Z)-1-[3-(2-isopropylphenyl)-4-oxo-thiazolidin-2-ylidene]-3-[3-[4(trifluoromethoxy)phenyl]benzo[e]benzimidazol-7-yl]urea]
≥ 75%: mortality at 800 ppm [2] | mortality at 800 ppm [3] | mortality at 800 ppm [4] | mortality at 800 ppm [5]

CC(C)c1ccccc1N/C(S)=N/C(=O)Nc1ccc2c(ccc3c2ncn3-c2ccc(OC(F)(F)F)cc2)c1 [C-117, (1Z)-1-[(2-isopropylanilino)-sulfanyl-methylene]-3-[3-[4-(trifluoromethoxy)phenyl]benzo[e]benzimidazol-7-yl]urea]
≥ 75%: mortality at 800 ppm [2] | mortality at 800 ppm [3] | mortality at 800 ppm [4] | mortality at 800 ppm [5]
